Measured values: ChEMBL document CHEMBL4507299, “Data for DCP probe PF-04554878” (2021)

Key:
[1] = biological target: Atypical kinase COQ8B, mitochondrial (Homo sapiens) (UniProt Q96D53)
[2] = tested on: Receptor-type tyrosine-protein kinase FLT3 (Homo sapiens), P36888 [D835Y]
[3] = biological target: 5-hydroxytryptamine receptor 2C (Homo sapiens) (UniProt P28335); conditions: Compound concentration 10.0 uM
[4] = biological target: Platelet-derived growth factor receptor beta (Homo sapiens) (UniProt P09619)
[5] = tested on: Epidermal growth factor receptor (Homo sapiens), P00533 [T790M]
[6] = biological target: Insulin receptor-related protein (Homo sapiens) (UniProt P14616)
[7] = biological target: Cyclin-dependent kinase 15 (Homo sapiens) (UniProt Q96Q40)
[8] = tested on: Phosphatidylinositol 4,5-bisphosphate 3-kinase catalytic subunit alpha isoform (Homo sapiens), P42336 [E545A]
Sequence of Phosphatidylinositol 4,5-bisphosphate 3-kinase catalytic subunit alpha isoform (Homo sapiens), P42336 [E545A] (P42336 whole entry E545A, canonical isoform): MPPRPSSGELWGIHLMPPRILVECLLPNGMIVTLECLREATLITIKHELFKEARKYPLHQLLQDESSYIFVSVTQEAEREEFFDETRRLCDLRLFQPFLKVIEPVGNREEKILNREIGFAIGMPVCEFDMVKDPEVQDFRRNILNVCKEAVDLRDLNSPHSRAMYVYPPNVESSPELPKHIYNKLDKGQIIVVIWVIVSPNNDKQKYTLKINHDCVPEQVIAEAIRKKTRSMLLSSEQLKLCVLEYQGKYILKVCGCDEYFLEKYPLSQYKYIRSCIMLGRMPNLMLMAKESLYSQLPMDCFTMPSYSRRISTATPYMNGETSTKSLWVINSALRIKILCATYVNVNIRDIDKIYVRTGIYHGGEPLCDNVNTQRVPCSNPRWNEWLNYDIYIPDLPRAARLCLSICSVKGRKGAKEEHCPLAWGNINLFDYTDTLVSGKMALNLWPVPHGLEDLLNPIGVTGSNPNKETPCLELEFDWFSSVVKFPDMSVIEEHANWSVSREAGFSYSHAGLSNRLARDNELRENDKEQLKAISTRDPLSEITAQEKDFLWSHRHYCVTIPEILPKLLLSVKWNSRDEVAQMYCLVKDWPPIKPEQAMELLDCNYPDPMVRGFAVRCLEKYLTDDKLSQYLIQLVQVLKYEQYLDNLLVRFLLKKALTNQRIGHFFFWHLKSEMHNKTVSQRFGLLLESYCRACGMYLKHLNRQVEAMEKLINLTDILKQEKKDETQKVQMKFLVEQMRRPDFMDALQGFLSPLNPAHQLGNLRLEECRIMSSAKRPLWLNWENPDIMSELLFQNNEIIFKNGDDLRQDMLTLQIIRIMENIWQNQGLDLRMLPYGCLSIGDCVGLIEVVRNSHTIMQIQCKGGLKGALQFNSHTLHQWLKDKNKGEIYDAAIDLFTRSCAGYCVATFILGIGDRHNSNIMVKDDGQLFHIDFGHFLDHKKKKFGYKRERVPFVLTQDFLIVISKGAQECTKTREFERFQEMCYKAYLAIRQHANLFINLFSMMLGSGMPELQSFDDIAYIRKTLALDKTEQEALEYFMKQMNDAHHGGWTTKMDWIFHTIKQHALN

[9] = biological target: Dual specificity protein kinase CLK4 (Homo sapiens) (UniProt Q9HAZ1)
[10] = biological target: Glycogen synthase kinase-3 alpha (Homo sapiens) (UniProt P49840)
[11] = biological target: Misshapen-like kinase 1 (Homo sapiens) (UniProt Q8N4C8)
Sequence of Misshapen-like kinase 1 (Homo sapiens) (Q8N4C8 whole entry, looked up): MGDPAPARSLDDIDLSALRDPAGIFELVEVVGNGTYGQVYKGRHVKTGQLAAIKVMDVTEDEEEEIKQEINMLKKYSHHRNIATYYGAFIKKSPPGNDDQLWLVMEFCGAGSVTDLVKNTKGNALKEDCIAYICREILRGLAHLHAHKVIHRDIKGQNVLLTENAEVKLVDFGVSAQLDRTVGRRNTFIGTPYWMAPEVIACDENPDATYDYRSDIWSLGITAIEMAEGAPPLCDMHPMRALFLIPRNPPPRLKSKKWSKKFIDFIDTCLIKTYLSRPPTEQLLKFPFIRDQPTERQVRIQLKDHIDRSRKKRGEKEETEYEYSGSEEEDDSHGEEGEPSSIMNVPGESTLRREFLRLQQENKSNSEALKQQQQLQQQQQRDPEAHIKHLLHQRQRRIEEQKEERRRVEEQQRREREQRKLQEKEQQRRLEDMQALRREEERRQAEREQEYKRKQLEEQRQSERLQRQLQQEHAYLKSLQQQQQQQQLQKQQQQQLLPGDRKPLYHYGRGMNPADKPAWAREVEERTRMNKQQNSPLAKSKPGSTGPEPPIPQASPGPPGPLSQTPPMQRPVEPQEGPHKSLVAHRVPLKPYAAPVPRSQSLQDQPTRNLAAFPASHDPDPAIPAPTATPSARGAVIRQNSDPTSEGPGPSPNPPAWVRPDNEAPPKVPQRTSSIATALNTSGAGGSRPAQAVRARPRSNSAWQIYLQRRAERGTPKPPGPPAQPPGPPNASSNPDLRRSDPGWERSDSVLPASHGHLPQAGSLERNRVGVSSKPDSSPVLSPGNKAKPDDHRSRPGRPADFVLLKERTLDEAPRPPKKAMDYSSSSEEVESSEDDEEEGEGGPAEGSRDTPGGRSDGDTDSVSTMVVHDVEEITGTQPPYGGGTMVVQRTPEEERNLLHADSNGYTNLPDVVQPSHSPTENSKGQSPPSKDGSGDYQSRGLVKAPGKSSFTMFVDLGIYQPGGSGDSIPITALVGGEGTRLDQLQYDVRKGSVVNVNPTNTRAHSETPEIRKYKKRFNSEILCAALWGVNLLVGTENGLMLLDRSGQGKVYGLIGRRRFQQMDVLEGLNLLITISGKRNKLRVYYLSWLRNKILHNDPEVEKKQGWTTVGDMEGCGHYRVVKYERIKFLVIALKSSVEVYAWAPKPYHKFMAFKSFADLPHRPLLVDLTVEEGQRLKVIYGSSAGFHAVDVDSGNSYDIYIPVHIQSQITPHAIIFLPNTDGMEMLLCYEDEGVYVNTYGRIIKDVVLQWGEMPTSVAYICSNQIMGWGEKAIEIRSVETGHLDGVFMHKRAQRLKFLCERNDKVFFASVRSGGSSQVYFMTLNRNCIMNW

[12] = tested on: Receptor-type tyrosine-protein kinase FLT3 (Homo sapiens), P36888 [UNDEFINED MUTATION]
[13] = biological target: Receptor tyrosine-protein kinase erbB-4 (Homo sapiens) (UniProt Q15303)
[14] = biological target: Mitogen-activated protein kinase kinase kinase 3 (Homo sapiens) (UniProt Q99759)
[15] = biological target: Protein-tyrosine kinase 2-beta (Homo sapiens, UniProt Q14289)
Sequence of Protein-tyrosine kinase 2-beta (Q14289 whole entry, looked up): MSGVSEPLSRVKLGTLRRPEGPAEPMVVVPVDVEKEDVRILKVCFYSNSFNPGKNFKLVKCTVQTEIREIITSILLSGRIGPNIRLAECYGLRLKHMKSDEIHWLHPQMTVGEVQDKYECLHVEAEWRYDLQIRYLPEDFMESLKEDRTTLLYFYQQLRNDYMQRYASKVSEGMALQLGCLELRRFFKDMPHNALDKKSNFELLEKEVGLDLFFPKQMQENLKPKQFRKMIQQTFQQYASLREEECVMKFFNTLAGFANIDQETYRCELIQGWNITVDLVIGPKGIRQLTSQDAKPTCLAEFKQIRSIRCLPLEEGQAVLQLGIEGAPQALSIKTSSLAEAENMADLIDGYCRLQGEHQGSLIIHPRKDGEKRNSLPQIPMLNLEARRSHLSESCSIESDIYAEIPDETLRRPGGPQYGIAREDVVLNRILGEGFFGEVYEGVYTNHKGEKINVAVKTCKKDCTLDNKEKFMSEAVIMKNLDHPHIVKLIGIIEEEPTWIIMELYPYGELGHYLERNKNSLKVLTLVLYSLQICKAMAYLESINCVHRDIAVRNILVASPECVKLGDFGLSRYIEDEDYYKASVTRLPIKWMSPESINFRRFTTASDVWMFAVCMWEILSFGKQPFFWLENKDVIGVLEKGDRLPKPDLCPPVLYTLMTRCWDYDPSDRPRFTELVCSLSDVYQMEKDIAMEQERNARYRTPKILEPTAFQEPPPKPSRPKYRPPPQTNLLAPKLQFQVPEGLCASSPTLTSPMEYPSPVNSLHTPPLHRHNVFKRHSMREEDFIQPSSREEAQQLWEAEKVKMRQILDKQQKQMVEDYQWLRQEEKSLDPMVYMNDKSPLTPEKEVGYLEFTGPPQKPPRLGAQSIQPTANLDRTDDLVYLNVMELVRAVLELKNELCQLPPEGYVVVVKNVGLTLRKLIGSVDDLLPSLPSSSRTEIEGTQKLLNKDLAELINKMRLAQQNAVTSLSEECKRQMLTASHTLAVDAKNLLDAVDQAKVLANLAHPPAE

[16] = biological target: SNF-related serine/threonine-protein kinase (Homo sapiens) (UniProt Q9NRH2)
[17] = biological target: SRSF protein kinase 2 (Homo sapiens) (UniProt P78362)
[18] = biological target: Tyrosine-protein kinase SYK (Homo sapiens) (UniProt P43405)
[19] = biological target: Aurora kinase C (Homo sapiens) (UniProt Q9UQB9)
[20] = biological target: Calcium/calmodulin-dependent protein kinase type II subunit delta (Homo sapiens) (UniProt Q13557)
[21] = biological target: Tyrosine-protein kinase Fgr (Homo sapiens) (UniProt P09769)
[22] = biological target: Homeodomain-interacting protein kinase 1 (Homo sapiens) (UniProt Q86Z02)
[23] = tested on: Epidermal growth factor receptor (Homo sapiens), P00533 [L858R,T790M]
[24] = biological target: Tyrosine-protein kinase Lyn (Homo sapiens, UniProt P07948)
[25] = biological target: Fibroblast growth factor receptor 4 (Homo sapiens) (UniProt P22455)
[26] = biological target: Serine/threonine-protein kinase 10 (Homo sapiens) (UniProt O94804)
[27] = biological target: Ephrin type-A receptor 5 (Homo sapiens) (UniProt P54756)
Sequence of Ephrin type-A receptor 5 (Homo sapiens) (P54756 whole entry, canonical isoform): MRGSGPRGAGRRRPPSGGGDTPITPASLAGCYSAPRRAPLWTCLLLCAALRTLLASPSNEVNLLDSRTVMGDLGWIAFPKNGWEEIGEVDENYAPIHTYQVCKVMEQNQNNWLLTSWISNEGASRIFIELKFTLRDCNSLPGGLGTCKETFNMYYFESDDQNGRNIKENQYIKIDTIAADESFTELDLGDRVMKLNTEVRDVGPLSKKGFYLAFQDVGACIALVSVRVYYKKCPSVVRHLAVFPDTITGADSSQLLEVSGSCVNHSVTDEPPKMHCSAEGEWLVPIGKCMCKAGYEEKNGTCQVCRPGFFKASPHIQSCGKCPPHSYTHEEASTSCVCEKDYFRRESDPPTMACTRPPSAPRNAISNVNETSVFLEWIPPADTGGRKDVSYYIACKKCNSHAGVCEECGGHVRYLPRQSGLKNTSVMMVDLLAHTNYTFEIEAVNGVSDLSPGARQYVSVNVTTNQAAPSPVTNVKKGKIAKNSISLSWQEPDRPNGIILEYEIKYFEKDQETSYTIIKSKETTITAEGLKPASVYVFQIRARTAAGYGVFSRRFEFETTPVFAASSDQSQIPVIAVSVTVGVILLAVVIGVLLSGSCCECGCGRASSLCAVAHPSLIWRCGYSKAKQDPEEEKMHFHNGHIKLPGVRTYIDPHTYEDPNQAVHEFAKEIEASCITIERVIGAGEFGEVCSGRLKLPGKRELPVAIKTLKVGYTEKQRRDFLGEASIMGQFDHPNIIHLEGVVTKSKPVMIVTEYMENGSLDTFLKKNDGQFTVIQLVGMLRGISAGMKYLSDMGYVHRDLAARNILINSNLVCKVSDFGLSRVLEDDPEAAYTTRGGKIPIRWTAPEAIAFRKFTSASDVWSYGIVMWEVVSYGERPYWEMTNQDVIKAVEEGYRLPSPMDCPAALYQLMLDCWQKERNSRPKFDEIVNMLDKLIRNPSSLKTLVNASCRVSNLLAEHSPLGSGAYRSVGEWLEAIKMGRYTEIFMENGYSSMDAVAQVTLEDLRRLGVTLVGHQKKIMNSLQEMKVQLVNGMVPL

[28] = biological target: Phosphatidylinositol 4,5-bisphosphate 3-kinase catalytic subunit alpha isoform (Homo sapiens) (UniProt P42336)
Sequence of Phosphatidylinositol 4,5-bisphosphate 3-kinase catalytic subunit alpha isoform (Homo sapiens) (P42336 whole entry, canonical isoform): as the sequence (P42336 whole entry E545A, canonical isoform) above, with A545E counted along it

[29] = biological target: Alpha-2A adrenergic receptor (Homo sapiens) (UniProt P08913); conditions: Compound concentration 10.0 uM
[30] = tested on: Epidermal growth factor receptor (Homo sapiens), P00533 [UNDEFINED MUTATION]
[31] = biological target: Mitogen-activated protein kinase kinase kinase 9 (Homo sapiens, UniProt P80192)
[32] = biological target: Serine/threonine-protein kinase DCLK2 (Homo sapiens) (UniProt Q8N568)
[33] = biological target: Myosin-IIIa (Homo sapiens) (UniProt Q8NEV4)
[34] = biological target: Aurora kinase B (Homo sapiens) (UniProt Q96GD4)
[35] = tested on: Mast/stem cell growth factor receptor Kit (Homo sapiens), P10721 [V559D]
[36] = biological target: Serine/threonine-protein kinase TAO2 (Homo sapiens) (UniProt Q9UL54)
[37] = biological target: Ribosomal protein S6 kinase alpha-5 (Homo sapiens) (UniProt O75582)
[38] = biological target: Casein kinase I isoform delta (Homo sapiens) (UniProt P48730)
[39] = tested on: Serine/threonine-protein kinase B-raf (Homo sapiens), P15056 [V600E]
[40] = biological target: Serine/threonine-protein kinase PLK3 (Homo sapiens) (UniProt Q9H4B4)
[41] = biological target: RAC-beta serine/threonine-protein kinase (Homo sapiens) (UniProt P31751)
Sequence of RAC-beta serine/threonine-protein kinase (Homo sapiens) (P31751 whole entry): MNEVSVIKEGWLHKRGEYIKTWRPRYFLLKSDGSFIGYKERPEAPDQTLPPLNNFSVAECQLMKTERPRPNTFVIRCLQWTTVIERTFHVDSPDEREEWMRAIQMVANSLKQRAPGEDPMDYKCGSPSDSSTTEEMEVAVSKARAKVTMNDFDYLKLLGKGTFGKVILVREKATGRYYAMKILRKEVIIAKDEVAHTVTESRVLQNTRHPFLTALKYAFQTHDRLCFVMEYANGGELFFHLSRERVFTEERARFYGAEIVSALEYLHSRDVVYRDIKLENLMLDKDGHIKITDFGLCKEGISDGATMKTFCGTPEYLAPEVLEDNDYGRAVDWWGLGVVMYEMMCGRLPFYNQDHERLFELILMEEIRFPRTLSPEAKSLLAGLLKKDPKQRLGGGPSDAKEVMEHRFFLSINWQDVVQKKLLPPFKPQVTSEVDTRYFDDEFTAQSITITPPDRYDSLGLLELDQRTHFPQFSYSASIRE

[42] = biological target: Calcium-dependent protein kinase 1 (Plasmodium falciparum) (UniProt P62344)
[43] = biological target: Cyclin-dependent kinase 7 (Homo sapiens) (UniProt P50613)
[44] = biological target: Dual specificity tyrosine-phosphorylation-regulated kinase 2 (Homo sapiens) (UniProt Q92630)
[45] = biological target: Mitogen-activated protein kinase kinase kinase 1 (Homo sapiens) (UniProt Q13233)
[46] = Compound concentration 100.0 nM
[47] = Compound concentration 1000.0 nM

## CNC(=O)c1ccc(Nc2ncc(C(F)(F)F)c(NCc3nccnc3N(C)S(C)(=O)=O)n2)cc1 [DEFACTINIB]
[1]; [46]
  residual activity: 88%
[2]; [46]
  residual activity: 5.9%
[3]
  inhibition: 16.9%
[4]; [46]
  residual activity: 83%
[5]; [46]
  residual activity: 99%
[6]; [46]
  residual activity: 95%
[7]; [46]
  residual activity: 67%
[8]; [46]
  residual activity: 98%
[9]; [46]
  residual activity: 25%
[10]; [46]
  residual activity: 83%
[11]; [46]
  residual activity: 44%
[12]; [46]
  residual activity: 9%
[13]; [46]
  residual activity: 84%
[14]; [46]
  residual activity: 81%
[15]; [46]
  residual activity: 8.3%
[16]; [46]
  residual activity: 100%
[17]; [46]
  residual activity: 100%
[18]; [46]
  residual activity: 66%
[19]; [46]
  residual activity: 47%
[20]; [46]
  residual activity: 83%
[21]; [46]
  residual activity: 81%
[22]; [46]
  residual activity: 27%
[23]; [46]
  residual activity: 91%
[24]; [46]
  residual activity: 85%
[25]; [46]
  residual activity: 95%
[26]; [46]
  residual activity: 77%
[27]; [46]
  residual activity: 64%
[28]; [46]
  residual activity: 100%
[29]
  inhibition: 9.61%
[30]; [46]
  residual activity: 97%
[31]; [46]
  residual activity: 44%
[32]; [46]
  residual activity: 71%
[33]; [46]
  residual activity: 100%
[34]; [46]
  residual activity: 73%
[35]; [46]
  residual activity: 92%
[36]; [46]
  residual activity: 92%
[37]; [46]
  residual activity: 81%
[38]; [46]
  residual activity: 98%
[39]; [46]
  residual activity: 100%
[40]; [46]
  residual activity: 91%
[41]; [46]
  residual activity: 77%
[42]; [46]
  residual activity: 85%
[43]; [46]
  residual activity: 59%
[44]; [46]
  residual activity: 76%
[45]; [46]
  residual activity: 100%

## CN(c1ccnc(CNc2nc(Nc3ccc4c(c3)CC(=O)N4)ncc2C(F)(F)F)n1)S(C)(=O)=O [PF-00911705]
[1]; [47]
  residual activity: 84%
[2]; [47]
  residual activity: 2%
[3]
  inhibition: 8.11%
[4]; [47]
  residual activity: 69%
[5]; [47]
  residual activity: 100%
[6]; [47]
  residual activity: 100%
[7]; [47]
  residual activity: 63%
[8]; [47]
  residual activity: 90%
[9]; [47]
  residual activity: 1.4%
[10]; [47]
  residual activity: 64%
[11]; [47]
  residual activity: 53%
[12]; [47]
  residual activity: 0%
[13]; [47]
  residual activity: 46%
[14]; [47]
  residual activity: 44%
[15]; [47]
  residual activity: 59%
[16]; [47]
  residual activity: 85%
[17]; [47]
  residual activity: 40%
[18]; [47]
  residual activity: 5.7%
[19]; [47]
  residual activity: 14%
[20]; [47]
  residual activity: 100%
[21]; [47]
  residual activity: 58%
[22]; [47]
  residual activity: 45%
[23]; [47]
  residual activity: 56%
[24]; [47]
  residual activity: 80%
[25]; [47]
  residual activity: 83%
[26]; [47]
  residual activity: 100%
[27]; [47]
  residual activity: 82%
[28]; [47]
  residual activity: 100%
[29]
  inhibition: 0.4%
[30]; [47]
  residual activity: 75%
[31]; [47]
  residual activity: 41%
[32]; [47]
  residual activity: 90%
[33]; [47]
  residual activity: 100%
[34]; [47]
  residual activity: 9.9%
[35]; [47]
  residual activity: 75%
[36]; [47]
  residual activity: 58%
[37]; [47]
  residual activity: 96%
[38]; [47]
  residual activity: 100%
[39]; [47]
  residual activity: 68%
[40]; [47]
  residual activity: 1.7%
[41]; [47]
  residual activity: 82%
[42]; [47]
  residual activity: 84%
[43]; [47]
  residual activity: 3.5%
[44]; [47]
  residual activity: 37%
[45]; [47]
  residual activity: 49%
